# Where “and” joins values, the source holds several entries; their conditions need not be identical. Equal entries are not always repeated.
# Tested on: CMV
# Assay: Study HDP-CDV-201: prevention or control of CMV infection in R+ HSCT recipients (efficacy)
# Format: in vivo, human (adult allogeneic HSCT recipients)
# Details: for Time to CMV DNAemia (≧100 copies/mL), Mean / Number of Subjects who had CMV DNAemia (≧100 copies/mL) by the end of study / Time to CMV DNAemia (≧100 copies/mL), Median: CMV DNA negative at baseline; for Difference (HDP-CDV minus placebo) in rate of CMV DNAemia ≧1,000 copies/mL / Rate of CMV DNAemia ≧1,000 copies/mL during the treatment period: CMV modified strata: positive; for Discontinuation: Emergence of CMV disease / Discontinuation: Initiation of alternate CMV therapy: active treatment period
# Method: The clinical study of the current invention (HDP-CDV-201) was a 9-11 week randomized, placebo-controlled, double-blind, dose-escalation study (40 mg weekly [QW], 100 mg QW, 200 mg QW, 200 mg twice-weekly [BIW], and 100 mg BIW) of HDP-CDV for the prevention of CMV infection post-HCT. Treatment was initiated at the time of engraftment and continued until Week 13 post-HCT. HDP-CDV, at various doses, was active and well tolerated in the prevention CMV infection or disease.
# Clinical Studies of HDP-CDV were performed and described in detail in the following Examples. For example, HDP-CDV-201 is a placebo-controlled, dose-escalating trial in HSCT CMV (R+) recipients, evaluating the ability of HDP-CDV to prevent or control CMV infection was carried out. Five cohorts were established in which participants or subjects received either placebo or the HDP-CDV orally, in doses ranging from 40 mg weekly (QW) to 200 mg twice weekly (BIW). Subjects who were post-HSCT were enrolled at the time of engraftment and randomized to HDP-CDV or placebo (3 to 1 ratio) and received blinded therapy until approximately 100 day post-transplantation. HDP-CDV doses were 40 mg QW, 100 mg QW, 200 mg QW, 200 mg BIW and 100 mg BIW. Escalation to the next dose was decided by the data monitoring committee after review of the safety data from the previous Cohort. Subjects who developed CMV disease or CMV infection requiring pre-emptive therapy with local standard of care were discontinued from blinded therapy and followed for 4 weeks. Subjects who completed treatment with blinded therapy were followed for 8 weeks post-therapy.
# The primary endpoint was defined as the incidence of CMV disease at any time during treatment or CMV DNAemia≧200 copies/mL at the end of treatment. All subjects who received at least one dose of drug/placebo and had at least one efficacy evaluation post baseline were included in the primary analysis, regardless of their CMV DNAemia status (negative or positive) at baseline (mITT population). Results for the pooled HDP-CDV Cohorts and for each Cohort separately were analyzed versus that for pooled placebo.
# The primary efficacy measure for this study was treatment failure, defined as the occurrence of CMV infection, defined as CMV DNAemia>200 copies/mL at the End of Treatment or diagnosis of CMV disease at any time during the treatment period. For the analysis, the following definitions apply:
# For subjects who completed the treatment phase of the study, the End of Treatment was defined as the latest assessment from date of the last dose of study drug and up to 7 days for QW dosing, or the date of the last dose of study drug and up to 4 days for BIW dosing. For subjects who discontinued during the treatment phase of the study, the End of Treatment was defined as the date of the last dose of study drug.
# The time to event was defined as the period between FDD and date of first occurrence of the event of interest (inclusive). The events included onset of CMV DNAemia, onset of CMV disease, and discontinuation because of excluded anti-CMV medications. Time to event/onset was derived as (the event/onset date—FDD)+1.
# As detailed in the Statistical Analysis Plan, a modified CMV stratum was defined prior to conducting the statistical analysis based upon polymerase chain reaction (PCR) results from the central laboratory. If any positive CMV DNA value in plasma was collected before the first dose of study drug (including Screening, Pre-dose, (combined Screening/Pre-dose), CMV for stratification, and FDD), then the subject was placed into the modified CMV positive (≧100 copies/mL) stratum, otherwise the subject was in the modified CMV negative stratum. […]
# [1] = 200 mg BIW/QW, modified CMV negative stratum
# [2] = 200 mg BIW, CMV modified strata: negative
# [3] = 200 mg BIW, modified CMV negative stratum
# [4] = 200 mg QW, CMV modified strata: negative
structure (smiles),measurement,setting,value
CCCCCCCCCCCCCCCCOCCCOP(=O)(O)COC(CO)Cn1ccc(N)nc1=O (stereo not drawn) [HDP-CDV],"Time to CMV DNAemia (≧100 copies/mL), Mean","100 mg QW, treatment period, censored values not included",38.8 days
same,Number of Subjects who had CMV DNAemia (≧100 copies/mL) by the end of study,"100 mg QW, whole study period",8
same,"Time to CMV DNAemia (≧100 copies/mL), Mean","100 mg QW, whole study period",53.4 days
same,"Time to CMV DNAemia (≧100 copies/mL), Median","100 mg QW, whole study period",38.5 days
same,"% CMV Event Rate: Incidence of CMV DNAemia >100 copies/mL During Treatment (Fisher analysis, ref 14.3.3.2.1)",[1],4 (18.2%) subjects (%)
same,"% CMV Event Rate: Incidence of CMV DNAemia ≧1,000 copies/mL at any time during treatment",[1],0 subjects (%)
same,Difference (HDP-CDV minus placebo) in infection rate,[2],−16.2%
same,"Difference (HDP-CDV minus placebo) in rate of CMV DNAemia ≧1,000 copies/ml",[2],−31.9%
same,"Rate of CMV DNAemia ≧1,000 copies/ml during the treatment period",[2],0%
same,Rate of CMV Disease or End of Treatment CMV Infection,[2],13.6%
same,"Difference (HDP-CDV minus placebo) in rate of CMV DNAemia ≧1,000 copies/mL",200 mg BIW,−58.3%
same,"Rate of CMV DNAemia ≧1,000 copies/mL during the treatment period",200 mg BIW,25%
same,Rate of CMV Disease or End of Treatment CMV Infection,"200 mg BIW, aGVHD randomization strata: negative",24.1%
same,Difference (HDP-CDV minus placebo) in infection rate,"200 mg BIW, aGVHD strata: negative",−7.9%
same,Discontinuation: Emergence of CMV disease,200 mg BIW,0 Subject n (%)
same,Discontinuation: Initiation of alternate CMV therapy,200 mg BIW,5 (16.7%) Subject n (%)
same,Difference (HDP-CDV minus placebo) in rate of CMV DNAemia ≧1000 copies/mL,"200 mg BIW, mITT",−35.7%
same,Difference (HDP-CDV minus placebo) in rate of CMV disease or end of treatment CMV infection,"200 mg BIW, mITT",−14.0%
same,Subjects Receiving Antiviral Therapy and/or had CMV disease,"200 mg BIW, mITT",5 (16.7%) subjects (%)
same,Subjects without a CMV event,"200 mg BIW, mITT",25 (83.3%) subjects (%)
same,"Time to Antiviral Therapy, Median","200 mg BIW, mITT",15.0 days
same,Rate of CMV Disease or End of Treatment CMV Infection (≧200 copies/ml),"200 mg BIW, mITT, missing=infection",23% and 23.3%
same,Rate of CMV DNAemia ≧1000 copies/mL during the treatment period,"200 mg BIW, mITT, post hoc",7% and 6.7%
same,"Time to Antiviral Therapy, Mean","200 mg BIW, mITT, censored values not included",21.6 days
same,"Subjects Who Had CMV-related Event (CMV disease, CMV DNAemia ≧1,000 c/mL or initiation of anti-CMV treatment)",[3],3 (13.6%) subjects (%)
same,Subjects without a CMV-related event,[3],20 (86.4%) subjects (%)
same,Developed CMV DNAemia (≧100 copies/mL) during the treatment period,"200 mg BIW, plasma CMV DNA negative at baseline, mITT",4 (17.4%) N(%)
same,"Time to CMV DNAemia (≧100 copies/mL), Median","200 mg BIW, treatment period",25.5 days
same,"Time to CMV DNAemia (≧100 copies/mL), Mean","200 mg BIW, treatment period, censored values not included",24.8 days
same,Median Survival Time to CMV DNAemia (Kaplan-Meier),"200 mg BIW, whole study period",130 days
same,Number of Subjects who had CMV DNAemia (≧100 copies/mL) by the end of study,"200 mg BIW, whole study period",9
same,"Time to CMV DNAemia (≧100 copies/mL), Mean","200 mg BIW, whole study period",49.0 days
same,"Time to CMV DNAemia (≧100 copies/mL), Median","200 mg BIW, whole study period",42.0 days
same,Difference (HDP-CDV minus placebo) in infection rate,[4],−9.1%
same,"Difference (HDP-CDV minus placebo) in rate of CMV DNAemia ≧1,000 copies/ml",[4],−25.0%
same,"Rate of CMV DNAemia ≧1,000 copies/ml during the treatment period",[4],6.9%
same,Rate of CMV Disease or End of Treatment CMV Infection,[4],20.7%
same,"Difference (HDP-CDV minus placebo) in rate of CMV DNAemia ≧1,000 copies/mL",200 mg QW,−33.3%
same,"Rate of CMV DNAemia ≧1,000 copies/mL during the treatment period",200 mg QW,50.0%
same,Rate of CMV Disease or End of Treatment CMV Infection,"200 mg QW, aGVHD randomization strata: negative",30.8%
same,Difference (HDP-CDV minus placebo) in infection rate,"200 mg QW, aGVHD strata: negative",−1.3%
same,Discontinuation: Emergence of CMV disease,200 mg QW,0 Subject n (%)
same,Discontinuation: Initiation of alternate CMV therapy,200 mg QW,7 (17.9%) Subject n (%)
same,Difference (HDP-CDV minus placebo) in rate of CMV DNAemia ≧1000 copies/mL,"200 mg QW, mITT",−24.4%
same,Difference (HDP-CDV minus placebo) in rate of CMV disease or end of treatment CMV infection,"200 mg QW, mITT",−6.5%
